Like-named read-outs stand apart in the source and are kept apart here.

For one series, the system named is anesthesia and analgesia. The settings on record: cited from earlier work.
The conditions of series [1]: cited from earlier work; for T1/2: biological half-life of metabolite.
Another series has as its system neuropathic pain. Conditions: cited from earlier work.
The nature of series [2]: Dose linearity test for oral transmucosal S-ketamine formulations.

As to `CNC1(c2ccccc2Cl)CCCCC1=O` (racemic) [Ketamine, dl-2-(o-chloro-phenyl)-2(methylamino)cyclohexanone], the duration of anesthesia in the series with anesthesia and analgesia (IM administration) was 12 to 25 min. In the series with anesthesia and analgesia (IM route), the time to anesthesia is 3 to 4 min. In the series on anesthesia and analgesia (administered intravenously), the time to anesthesia was no more than 0.5 min and the “time to sensation of dissociation” value was 15 s. Moreover, the “ketamine concentration at effective analgesia” value with anesthesia and analgesia (following oral dose) is 40 ng/mL. In the series with anesthesia and analgesia (iv bolus, dosage 2 mg/kg), the Time to onset is 30 to 60 s and the duration of effect is 10 to 15 min. Further, the “plasma levels at which analgesic effects were observed” value with anesthesia and analgesia (sum of S- and R-isomer, intramuscular and intravenous administration) is 100 to 200 ng/mL. For the same molecule, the T½ beta in series [1] (biological half-life) is recorded as 4.98 (1.56) h. Besides, in series [1] (in vivo), the Clearance was 12 to 17 mL/min/kg, the Metabolites excreted fecally is on record as 5%, the Metabolites excreted renally was 90% and the “Urinary excretion of unchanged drug” value is on record as 3-4%. In series [1] (in vivo), the “administered dose excreted unchanged in urine” value was 4%, the alpha phase half-life is 0.167 to 0.25 h, the “apparent volume of distribution” value is 3.3 L/kg and the beta phase half-life is 2 to 3 h. Further, in series [1] (in vivo), the clearance rate is 1.3 L/min, the distribution half-life is 7 to 11 min, the “duration of alpha phase of distribution” value is given as “about 45 minutes” and the elimination half-life was 2 to 3 h. Also, the elimination halftime entry in series [1] (in vivo) is recorded as “about 2.5 hours”. For the same molecule, in series [1] (intramuscular dose), the Bioavailability was 93%. Moreover, the “time of peak plasma concentrations” value in series [1] (intramuscular injection) was 5 to 10 min. In addition, the Bioavailability in series [1] (intranasal dose) is on record as 25-50%. Moreover, the “time of peak plasma concentrations” value in series [1] (intravenous administration) is on record as no more than 1 min. The “time of peak plasma concentrations” value in series [1] (oral administration) is 30 min. Further, in series [1] (oral dose), the Bioavailability is recorded as 20±7%. Moreover, the Bioavailability entry in series [1] (orally administered, extensive first-pass metabolism) is reported as “approximately 16%”. Besides, the “time of peak absorption” value in series [1] (rectal, in children) was 45 min. Besides, the “oral bioavailability (AUC) relative to intravenous injection” value in series [1] (single oral dose of 0.5 mg/kg) is reported as “about 20%”.
Turning to `NC1(c2ccccc2Cl)CCC=CC1=O` (stereo not drawn) [Dehydronorketamine], the T1/2 in series [1] is 6.91 (1.71) h.
With `NC1(c2ccccc2Cl)CCCCC1=O` (stereo not drawn) [Norketamine], the “peak plasma concentrations of norketamine” value in series [1] (after oral administration of ketamine) is 200 ng/mL. In addition, the T1/2 in series [1] is given as 5.32 (1.70) h.
As for `CN[C@]1(c2ccccc2Cl)CCCCC1=O` [S-Ketamine], the “therapeutic index relative to R-Ketamine” value with anesthesia and analgesia (in vivo) is recorded as 2.5 times. In the series on neuropathic pain (after nasal application), the “time to maximal pain reduction” value is 60 min. In the series with neuropathic pain (between 30 and 180 min after intranasal administration), the “plasma concentrations of (S)-norketamine” value was greater than 10 ng/mL. In addition, in the series on neuropathic pain (intranasal), the “time to (S)-ketamine plasma-peak” value is on record as no more than 15 min and the “time to decline of plasma level below 10 ng/ml” value is on record as no more than 60 min. In the series with neuropathic pain (low-dose intranasal administration), the “duration of reduction of ongoing neuropathic pain” value is 2 to 3 h. The “range of dose linearity” value in series [2] was in the range of 10 to 300 mg.
Turning to `N[C@]1(c2ccccc2Cl)CCCCC1=O` [S-norketamine], the “analgesic and anaesthetic effect relative to S-ketamine” value with anesthesia and analgesia (in vivo) is “five times weaker”.

Source of the values: patent publication US20140079740A1 (priority 2012, published 2014).
